Experimental data published in patent US20260091097A1, “COMBINATION TREATMENT REGIMES FOR TREATING CANCER” (Barinthus Biotherapeutics North America, Inc., priority 2022, published 2026).

How the values were obtained:
Assay type in all cases: in vivo, mouse
cDC1s = test: Flow cytometry of DC numbers and maturation after vaccination; details: IV route; comparable to SNP-IV
Method: For the mononuclear phagocyte uptake analysis, cells were assessed for viability with the LIVE/DEAD Fixable Blue Dead Cell Stain Kit for 10 min at room temperature. After FcR blocking, cells were stained for 20 minutes at room temperature with the following surface antibodies: NK1.1 (clone PK136), CD19 (clone 1D3), CD3 (clone 145-2C11), Ly6G (clone 1A8), CD45 (clone 30-F11), Siglec-H (clone 440c), CD86 (clone GL1), CD11c (clone L3), CD80 (clone 16-10A1), B220 (clone RA3-6B2), CD64 (clone X54-5/7.1), CD11b (clone MI/70) and Ly6C (clone AL-21) purchased from BD Biosciences, CCR7 (clone 4B12), MHC class II (I-A/I-E, clone M5/114.15.2), CD169 (clone 3D6.112) and XCR1 (clone ZET) purchased from BioLegend, and CD172a (clone P84) from Thermo Fisher Scientific. The stain was washed off and cells were then fixed in 0.5% PFA in PBS until they were acquired on an LSRFortessa X50 (BD Biosciences) using the FACSDiva software v8.0.1 (BD Biosciences).
Given the systemic distribution of vaccine after SNP-IV but not SNP-SC, the levels of pro-inflammatory cytokines in the sera of mice were assessed at 6 hours after vaccination (FIG. 3F). High levels of systemic IFNα and IL-12 were measured by ELISAs after SNP-IV, especially at the higher dose of 32 nmol that is used in the therapeutic studies, compared to SNP-SC (FIG. 3F). […]

MC38 tumors = test: Therapeutic MC38 tumor model, SNP-7/8a prime day 7 and boost day 14 together with anti-PD-L1; details: SNP-SC (Reps1) prime, IV boost 7 days later without tumor antigen
Method: For each tumor implantation, a frozen cell aliquot was thawed and cultured in MC38 media at 37° C. and 5% CO2, passaged once and collected using trypsin EDTA (Gibco). Then, […] in sterile PBS per mouse were implanted subcutaneously on the right flank. Tumors were measured twice a week using digital calipers. Tumor volume was estimated using the formula: (tumor volume=short×short×long/2). Animals were killed when tumors surpassed 1,000 mm^3.
Mice were implanted with MC38 tumors on the subcutaneous flank and were treated on day 7 (prime) and day 14 (boost) with SNP-7/8a containing Reps1, an MC38 neoAg, together with anti-PD-L1 (FIG. 1A). […] To confirm and extend these findings in a different tumor model, mice were implanted with TC-1 tumors and treated with SNP-7/8a containing HPV E6 antigen.
To assess the requirement for antigen at the time of boost, mice were primed with SNP-SC containing Reps1, followed by SNP-IV containing an irrelevant antigen (FIG. 1E).

[1] = system: neoAg-specific CD8+ T cells; test: Flow cytometry of tetramer+ CD8+ T cells after SNP vaccination; details: IV administration after SNP-SC prime, still with anti-tumor efficacy
Method: For T cell tetramer analysis, cells were assessed for viability with LIVE/DEAD Fixable Blue Dead Cell Stain Kit (Invitrogen) in PBS containing 50 nM dasatinib (STEMCELL Technologies) for 30 min at room temperature. Samples were then washed and blocked with anti-CD16/CD32 (BD Biosciences). Cells were then stained with fluorescently conjugated tetramer in cell staining buffer (PBS and 2% FCS) containing 50 nM dasatinib to enhance staining. Cells were simultaneously stained with the following surface antibodies to: CD8 (clone 53-6.7), PD-1 (clone 29F.A12), Tim-3 (clone RMT3-23), CD44 (clone IM7), CD39 (clone Duha59), and NKG2A (clone 16A11) purchased from BioLegend and CD4 (clone RM4-4) purchased from BD Biosciences. After a 1-h incubation at 4° C., cells were washed twice in cell staining buffer, fixed and permeabilized using the FoxP3 transcription factor staining buffer set (eBioscience). […]
To assess whether there are differences in the magnitude of neoAg-specific CD8^+ T cells after SNP-SC or SNP-IV boost, whole blood was sampled on day 21, a week after the boost and measured the tetramer^+ population by flow cytometry (FIG. 1G). […]
As markers of exhaustion and antigen experience on CD8^+ T cells are important for improving the therapeutic effects of immune checkpoint blockade, the expression of PD-1, TIM-3 and NKG2A post vaccination were assessed. […]

polyIC:LC
DC maturation in the spleen and tumor-draining LN (cDC1s): able to induce DC maturation
Tumor growth (MC38 tumors): significantly mediate tumor regression and prolong survival
CD8+ T cell responses compared to the other vaccinated groups [1]: ten-fold lower
